Values quoted from earlier work as cited in PMC6105163, “Abaloparatide Exerts Bone Anabolic Effects with Less Stimulation of Bone Resorption-Related Factors: A Comparison with Teriparatide” (Calcified Tissue International, 2018).
Ends that are not written are not given here.

What was measured:
bone mass = conditions: cited from earlier work; for effect of continuous infusion: in vivo; for bone mass, intermittent administration: ref [2], [3]
Description: Parathyroid hormone (PTH) and PTH-related protein (PTHrP) have a common G protein-coupled receptor, PTH1R, which plays a pivotal role in bone turnover and calcium homeostasis.

cAMP and PKC = conditions: ref [24]; cited from earlier work
Description: (§1) There is another possibility that the two peptides could show the different activity on protein kinase C (PKC). PKC is the downstream signal of PTH1R and is involved in the stimulation of bone resorption-related factors and bone catabolism. In fact, ostabolin, an amidated form of human PTH(1–31), differs from PTH(1–34) in PKC activation.

bone turnover = conditions: preclinical study, ref [25], cited from earlier work
Description: as §1

Row | Substance | effect of continuous infusion (bone mass) | bone mass, intermittent administration (bone mass) | cAMP accumulation and PKC activation (cAMP and PKC) | bone resorption (bone turnover; vs PTH(1–34)) | bone formation (bone turnover)
1 | PTH: Parathyroid hormone | caused bone loss and hypercalcemia | increased bone mass |  |  | 
2 | PTHrP: PTH-related protein | caused bone loss and hypercalcemia | increased bone mass |  |  | 
3 | ostabolin: an amidated form of human PTH(1–31) (SVSEIQLMHNLGKHLNSMERVEWLRKKLQDV-NH2; UniProt P01270 32-62, looked up, fragment) |  |  | cAMP accumulation without activating PKC | less effect on bone resorption than PTH(1–34) | stimulated bone formation similar to PTH(1–34)
